Experimental data from patent publication US7371364B2, “Cyclic peptide and imaging compound compositions and uses for targeted imaging and therapy” (Board of Regents, The University of Texas System, priority 2003, dated 2008).
Each block holds one compound with its values, some of them ahead of it.

Assays:
KS1767 tumors [1] = test: Dynamic in vivo NIR imaging, tumor ROI versus normal muscle ROI; design: species or system mice
Description: For dynamic in vivo fluorescence imaging, mice were anesthetized with an i.p. injection of 50 mg/kg pentobarbital, and a catheter was placed in the tail vein for i.v. injection of NIR dyes. A white-light image of the animal was obtained using a low-power lamp as a white light source with holographic and interference filters removed. Fluorescence images were then acquired as a function of time following administration of Cy5.5 (6 nmol per/mouse) or Cy5.5-c(KRGDf; SEQ ID NO. 3) (6 nmol per/mouse). For blocking studies, c(KRGDf; SEQ ID NO. 3) (600 nmol/mouse) was injected intravenously at 1 hr and 24 hr prior to the injection of Cy5.5-c(KRGDf; SEQ ID NO. 3). The acquisition time was 800 ms. Images were obtained every 6 seconds (s) for up to 20 minutes (min) following injection of each imaging agent. Each mouse was imaged again 24 hr after contrast injection.
Two regions of interest (ROI) were selected for quantitative analyses. One ROI was located entirely within the circumference of the tumor, and the other, of approximate equivalent size, defined a symmetric region of normal tissue located opposite the tumor site. (See FIG. 32A.) Utilizing Matlab software, the mean of the fluorescence intensity within each ROI was computed for every fluorescence image acquired. Data were acquired from the tumor ROI. (See FIG. 32B.) Data were acquired from normal muscle ROI. […] The symbols denote experimental measurements while the solid line denotes the corresponding least-squares fit. Animals were injected with Cy5.5-c(KRGDf; SEQ ID NO. 3) alone (6 nmol) (□), or Cy5.5-cc(KRGDf; SEQ ID NO. 3) 1 hr (∘) and 24 hr (⋄) after the injection of unconjugated c(KRGDf; SEQ ID NO. 3) peptide (600 nmol).

KS1767 cells = format: cell-based; conditions: 1 h
Description: A Cell Adhesion Assay was additionally performed. KS1767 cells were seeded in DMEM/F12 culture medium supplemented with 10% fetal bovine serum for 24 hr. Cells (1×10^5) with different concentrations of c(KRGDf; SEQ ID NO. 3) or Cy5.5-c(KRGDf; SEQ ID NO. 3) were added to vitronectin-coated microliter wells under serum-free conditions and incubated at 37° C. for 1 hr. After washing steps, the bound cells were stained with 5% crystal violet, followed by addition of 0.1M HCl to each well. The concentrations of crystal violet were determined by UV/V is absorption at 627 nm. IC50 values were estimated from the dose-activity curves.

KS1767 tumors [2] = test: In vivo NIR imaging of subcutaneous KS1767 tumors with RGD imaging agent; design: species or system mice; conditions: for Tumor targeting / uptake in NIR image: subcutaneous KS1767 tumors, i.v. 6 nmol/mouse, image 24 hours after injection
Source text: Cy5.5-c(KRGDf; SEQ ID NO. 3) may be used in near infrared (NIR) imaging. Mice inoculated with KS1767 were used for in vivo NIR studies. The mice were four to six week-old athymic nude mice (18-22 g, Harlan Sprague Dawley, Inc. Indianapolis, Ind.) which were housed 5 per cage and fed with sterilized pellet chow (Harlan Sprague Dawley) and sterilized water. The animals were maintained in a pathogen-free mouse colony in the Department of Veterinary Medicine at the University of Texas M.D. Anderson Cancer Center. All experiments were performed in accordance with the guidelines of the Institutional Animal Care and Use Committee.
Tumor cells for use in the animals were harvested near confluence by incubation with 0.05% trypsin-EDTA. Cells were pelleted by centrifugation at 450×g for 5 minutes and resuspended in sterile PBS. […] cells/animal were implanted subcutaneously into the chest wall or hind legs of the mice. Imaging studies were performed when tumors reached 4-6 mm in average diameter.
(§1) In vivo fluorescence imaging was accomplished by illuminating the animal with light from a laser diode (35 mW) expanded to an approximate 8 cm diameter circular area. The fluorescent light re-emitted from the animal was collected by an image intensifier (model FS9910C, ITT Night Vision, Roanoke, Va.) lens-coupled to a CCD camera (model CH350, Photometrics, Tucson, Ariz.). The imaging was designed so that the field of view could be varied from 3×3 cm to over 12×12 cm by varying the image distance of the 50 mm lens used to focus the image onto the photocathode of the intensifier. The lens was fitted with a holographic notch-plus filter (660 nm center wavelength; Kaiser Optical Systems, Inc., Ann Arbor, Mich.) and a bandpass filter (710 nm center wavelength) to reject back-scattered and reflected excitation photons. Image acquisition was accomplished using V++ software (Digital Optics, Auckland, New Zealand) and the obtained images were stored in uncompressed tagged image file format (tiff). Data processing and analysis were accomplished using Matlab software (The MathWorks, Inc., Natick, Mass.). For all imaging sessions, the image acquisition parameters were kept constant, and each image required 800 ms of camera integration.
For dynamic in vivo fluorescence imaging, mice were anesthetized with an i.p. injection of 50 mg/kg pentobarbital, and a catheter was placed in the tail vein for i.v. injection of NIR dyes. A white-light image of the animal was obtained using a low-power lamp as a white light source with holographic and interference filters removed. Fluorescence images were then acquired as a function of time following administration of Cy5.5 (6 nmol per/mouse) or Cy5.5-c(KRGDf; SEQ ID NO. 3) (6 nmol per/mouse). […]

αvβ3 integrin = molecular target: T1, αvβ3 integrin (Homo sapiens, UniProt P05106+P06756); test: In vitro blockage study of Cy5.5-c(KRGDf) binding to KS1767 cells (fluorescence microscopy); format: cell-based
T1 construct: endogenous in cells; host or cells: KS1767 sarcoma cells
Description: KS1767 sarcoma cells were maintained at 37° C. in a humidified atmosphere containing 5% CO2 in Dulbecco's Modified Eagle's Medium/Nutrient Mixture F-12 Ham (DMEM/F12) and 10% FBS (Gibco, Grand Island, N.Y.).
Cells were seeded on cover slips in 24-well plates (Becton Dickinson Labware, Franklin Lakes, N.J.) and incubated in DMEM/F12 culture medium (0.5 ml/well) overnight. Unconjugated c(KRGDf; SEQ ID NO. 3) was added to the culture medium at various concentrations. Cy5.5-c(KRGDf; SEQ ID NO. 3) was added one hour later to each well at a concentration of 6 μM. Cells were washed twice with PBS and incubated in a solution of Sytox Green in 95% ethyl alcohol (1 μM, Molecular Probe, Eugene, Oreg.) for 15 minutes to fix and stain cell nuclei. Cells were washed again with PBS and the cover slips were mounted for microscopic examination using a DMR microscope (Leica Microsystems Inc., Bannockburn, Ill.). The microscope was equipped with a 75W Xenon lamp, 775 nm/845 nm, 560 nm/645 nm, and 480 nm/535 nm (Excitation/emission) filters (Chroma Technology Corp., Brattleboro, Vt.), a Hamamatsu B/W Chilled CCD Camera (Hamamatsu Photonics K.K., Hamamatsu City, Japan), and an Image-Pro Plus 4.5.1 software (Media Cybernetics, Silver Spring, Md.). In the multiple staining images, Cy5.5 was pseudocolored red and Sytox Green was green.

[3] = tested on: integrin-positive M21 melanoma; test: In vivo NIR imaging of human melanoma xenograft, integrin-positive; design: species or system mice
Source text: as §1

[4] = tested on: integrin-negative M21-L melanoma; test: In vivo NIR imaging of human melanoma xenograft, integrin-negative; design: species or system mice
Source text: as §1

human tumor cells = test: In vitro tumor cell binding study (fluorescence microscopy); format: cell-based; conditions: SKBr-3, HT1080, MDA-MB-435, MDA-MB-468, U87 (PC-3 and U87 for the Tyr analogue); 37° C.
Description: All human tumor cell-lines were obtained from American Type Culture Collection (Rockville, Md.) and were maintained at 37° C. in a humidified atmosphere containing 5% CO2 in Dulbecco's Modified Eagle's Medium/Nutrient Mixture F-12 Ham (DMEM/F12) and 10% FBS (Gibco, Grand Island, N.Y.).
Cells were seeded on cover slips in 24-well plates (Becton Dickinson Labware, Franklin Lakes, N.J.) and incubated in DMEM/F12 culture medium (0.5 ml/well) overnight. Cy5.5 and Cy5.5-HWG polypeptide imaging agents were added into each well at the indicated concentrations. For the blocking study, doxycycline was added to the culture medium followed by the addition of Cy5.5-HWG polypeptide imaging agent 1 hour later. After an incubation period of 5-60 minutes at 37° C., cells were washed twice with PBS and incubated in a solution of Sytox Green in 95% ethyl alcohol (1 μM, Molecular Probe, Eugene, Oreg.) for 15 minutes to fix and stain cell nuclei. For staining of MMP expression, cells that were pretreated with Cy5.5-HWG polypeptide and stained with Sytox Green were incubated with anti-MMP antibody (Sigma) (1 mg/ml; 1:200 dilution) for 1 hour at room temperature. The cells were then washed and incubated with Texas Red conjugated go at anti-rabbit IgG (Molecular Probe, 4 μg/ml) at room temperature for 1 hour. Cells were washed again with PBS and the cover slips were mounted for microscopic examination using a DMR microscope (Leica Microsystems, Inc., Brannockburn, Ill.). The microscope was equipped with a 75W Xenon lamp, 775 nm/845 nm, 560 nm/645 nm, and 480 nm/535 nm (Excitation/emission) filters (Chroma Technology Corp., Brattleboro, Vt.), a Hamamatsu B/W Chilled CCD camera (Hamamatsu Photonics K.K., Hamamatsu City, Japan), and Image-Pro Plus 4.5.1 software (Media Cybernetics, Silver Spring, Md.). In the multiple staining images, Cy5.5, MMPs, and Sytox Green were pseudocolored red, green, and blue, respectively.

SKBr-3 tumors = test: In vivo NIR fluorescent imaging with HWG imaging agent; design: species or system mice; conditions: 4 days after i.v. injection, 15 nmol per mouse
Description: Four to six week-old athymic nude mice (18-22 g, Harlan Sprague Dawley, Inc., Indianapolis, Ind.) were housed 5 per cage with sterilized pet chow (Harlan Sprague Dawley) and sterilized water. Animals were maintained in a pathogen-free mouse colony in the Department of Veterinary Medicine at the University of Texas M.D. Anderson Cancer Center. All experiments were performed in accordance with the guidelines of the Institutional Animal Care and Use Committee. Tumor cells were harvested near confluence by incubation with 0.05% trypsin-EDTA. Cells were pelleted by centrifugation at 450×g for 5 minutes and resuspended in sterile PBS. Cells (2-3×10^6/animal) were implanted subcutaneously into the chest wall or the hind legs of the mice. Human PC-3 prostate tumors were obtained by intratibia injection of PC-3 cells into male nude mice. Human U87 glioma tumors were obtained by intracranial injection.
In vivo fluorescence imaging was accomplished by illuminating the animal with light from a laser diode (785 nm, 80 mW for IGC; 660 nm, 35 mW for Cy 5.5 dyes) expanded to an approximate 8 cm diameter circular area. The re-emitted fluorescent light was collected by an image intensifier (model FS9910C, ITT Night Vision, Roanoke, Va.) lens-coupled to a CCD camera (model CH350, Photometrics, Tucson, Ariz.). The imaging was designed so that the field of view could be varied from 3×3 cm to over 12×12 cm by varying the image distance of the 50 mm lens used to focus the image onto the photocathode of the intensifier. The lens was fitted with a holographic notch-plus filter (785 nm center wavelength for ICG and 660 nm center wavelength for Cy5.5 dyes; Kaiser Optical Systems, Inc., Ann Arbor, Mich.) and a bandpass filter (830 nm center wavelength for ICG, 710 nm center wavelength for Cy5.5 dyes) to reject back-scattered and reflected excitation photons. Image acquisition was accomplished using V++ software (Digital Optics, Auckland, New Zealand) and obtained images were stored in uncompressed tagged image file format (tiff). Data processing and analysis was accomplished using Matlab software (The Math Works, Inc., Natick, Mass.).

T1 sequence (P06756 31-889 limits assumed): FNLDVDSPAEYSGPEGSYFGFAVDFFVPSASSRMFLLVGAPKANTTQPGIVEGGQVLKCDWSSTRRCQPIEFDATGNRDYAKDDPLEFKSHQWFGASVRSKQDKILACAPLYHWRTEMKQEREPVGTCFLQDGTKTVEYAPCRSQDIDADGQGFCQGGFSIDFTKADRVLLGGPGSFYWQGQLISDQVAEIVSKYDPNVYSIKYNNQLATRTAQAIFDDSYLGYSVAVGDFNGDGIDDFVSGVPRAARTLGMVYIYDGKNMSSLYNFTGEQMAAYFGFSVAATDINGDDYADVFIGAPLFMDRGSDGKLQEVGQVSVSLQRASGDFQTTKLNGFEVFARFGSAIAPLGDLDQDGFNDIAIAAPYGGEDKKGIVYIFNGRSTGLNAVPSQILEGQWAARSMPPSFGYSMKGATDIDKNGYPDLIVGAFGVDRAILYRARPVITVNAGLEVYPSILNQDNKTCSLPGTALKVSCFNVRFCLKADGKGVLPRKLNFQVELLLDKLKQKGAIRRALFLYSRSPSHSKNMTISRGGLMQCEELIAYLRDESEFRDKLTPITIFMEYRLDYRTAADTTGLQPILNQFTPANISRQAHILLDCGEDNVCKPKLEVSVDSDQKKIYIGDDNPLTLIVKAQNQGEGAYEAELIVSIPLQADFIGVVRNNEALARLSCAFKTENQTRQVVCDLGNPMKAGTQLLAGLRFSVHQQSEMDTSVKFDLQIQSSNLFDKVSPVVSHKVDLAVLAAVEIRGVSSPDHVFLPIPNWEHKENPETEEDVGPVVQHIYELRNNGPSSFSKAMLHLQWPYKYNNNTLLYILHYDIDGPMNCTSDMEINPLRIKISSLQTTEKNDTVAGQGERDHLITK
T1 sequence (P06756 891-1048 partner limits assumed): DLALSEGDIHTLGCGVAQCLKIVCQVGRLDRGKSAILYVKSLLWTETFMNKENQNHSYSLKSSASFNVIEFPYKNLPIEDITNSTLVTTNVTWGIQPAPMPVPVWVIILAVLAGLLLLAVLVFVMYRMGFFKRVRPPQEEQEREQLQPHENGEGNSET
T1 sequence (P05106 27-788): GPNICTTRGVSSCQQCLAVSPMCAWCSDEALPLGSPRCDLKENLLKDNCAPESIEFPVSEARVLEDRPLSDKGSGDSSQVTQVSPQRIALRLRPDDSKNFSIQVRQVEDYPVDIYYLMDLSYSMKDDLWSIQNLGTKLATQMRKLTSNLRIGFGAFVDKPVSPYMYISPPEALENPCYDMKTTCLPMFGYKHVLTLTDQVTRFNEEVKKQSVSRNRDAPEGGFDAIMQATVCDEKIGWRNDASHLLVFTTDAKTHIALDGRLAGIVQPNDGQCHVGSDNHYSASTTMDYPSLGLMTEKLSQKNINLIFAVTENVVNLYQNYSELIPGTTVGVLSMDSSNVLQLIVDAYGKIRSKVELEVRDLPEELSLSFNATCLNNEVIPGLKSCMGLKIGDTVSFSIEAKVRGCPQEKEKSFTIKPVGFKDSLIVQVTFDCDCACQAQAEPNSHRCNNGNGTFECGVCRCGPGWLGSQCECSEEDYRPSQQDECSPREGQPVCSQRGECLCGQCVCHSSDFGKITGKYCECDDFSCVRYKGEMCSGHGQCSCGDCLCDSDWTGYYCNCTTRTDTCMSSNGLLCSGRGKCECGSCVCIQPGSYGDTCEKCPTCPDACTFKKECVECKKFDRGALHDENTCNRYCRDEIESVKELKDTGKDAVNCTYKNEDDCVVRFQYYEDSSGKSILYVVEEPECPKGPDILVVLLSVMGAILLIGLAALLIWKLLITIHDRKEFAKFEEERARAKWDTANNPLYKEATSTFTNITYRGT

IC50 (KS1767 cells): ~1110 nM | In vitro binding to αvβ3 (αvβ3 integrin; KS1767 cells, 6 μM imaging agent): demonstrated
Compound: CC[N+]1=C(C=CC=CC=C2N(CCCCCC(=O)NCCCC[C@@H]3NC(=O)[C@@H](Cc4ccccc4)NC(=O)[C@H](CC(=O)O)NC(=O)CNC(=O)[C@H](CCCNC(=N)N)NC3=O)c3ccc4c(S(=O)(=O)O)cc(S(=O)(=O)O)cc4c3C2(C)C)C(C)(C)c2c1ccc1c(S(=O)(=O)[O-])cc(S(=O)(=O)O)cc21 [Cy5.5-c(KRGDf; SEQ ID NO. 3)]
Rate of uptake in KS1767 tumors compared with muscle (KS1767 tumors [1]; 6 nmol/mouse i.v., dynamic imaging up to 20 min): faster | Rate of uptake in the tumor after preinjection of c(KRGDf) (KS1767 tumors [1]; c(KRGDf) 600 nmol, interval between injections 24 hr): partially recovered | Localization in excised tumor and adjacent muscle tissue (fluorescence microscopy) (KS1767 tumors [2]; ex vivo, KS1767 tumor excised 48 hr after i.v. injection): localized to the tumor, but not to the muscle cells | Tumor targeting / uptake in NIR image (KS1767 tumors [2]): clearly showed targeting

IC50 (KS1767 cells): ~2580 nM
Compound: CC1(C)C(=CC=C2CCCC(C=CC3=[N+](CCCCS(=O)(=O)O)c4ccc(S(=O)(=O)[O-])cc4C3(C)C)=C2Oc2ccc(S(=O)(=O)O)cc2)N(CCCCCC(=O)NCCCC[C@@H]2NC(=O)[C@@H](Cc3ccccc3)NC(=O)[C@H](CC(=O)O)NC(=O)CNC(=O)[C@H](CCCNC(=N)N)NC2=O)c2ccc(S(=O)(=O)O)cc21 [IRDye800-c(KRGDf; SEQ ID NO. 3)]
Visualization of tumor in NIR image ([3]; M21 melanoma, 24 hr after i.v. injection, 3 nmol/mouse): clearly visualized | Tumor-to-background ratio ([3]; mice with M21 tumors, from fluorescence intensity in region-of-interest): 1.7 | Visualization of tumor in NIR image ([4]; M21-L melanoma, 24 hr after i.v. injection, 3 nmol/mouse): not | Tumor-to-background ratio ([4]; mice with M21-L tumors, from fluorescence intensity in region-of-interest): 1.1

IC50 (KS1767 cells): ~2470 nM | Blockage of Cy5.5-c(KRGDf) binding to KS1767 cells (αvβ3 integrin; unconjugated peptide added one hour before 6 μM Cy5.5-c(KRGDf)): dose-dependent blockage
Compound: N=C(N)NCCC[C@@H]1NC(=O)[C@H](CCCCN)NC(=O)[C@@H](Cc2ccccc2)NC(=O)[C@H](CC(=O)O)NC(=O)CNC1=O [c(KRGDf; SEQ ID NO. 3), cyclo(Lys-Arg-Gly-Asp-phe), reference compound]
Effect of preinjection on uptake of Cy5.5-c(KRGDf) in the tumor (KS1767 tumors [1]; c(KRGDf) 600 nmol, interval between injections 1 hr): blocked the uptake | Effect of pretreatment on uptake of fluorophores in KS1767 tumors (KS1767 tumors [2]; 100-fold c(KRGDf) injected 1 hour before Cy5.5-c(KRGDf)): blocked the uptake

Compound: Cy5.5 [reference compound]
Binding to tumor cells (human tumor cells): did not display significant binding | Tumor targeting / uptake in NIR image (KS1767 tumors [2]): almost no optical activity uptake | Fluorescent signal in tumor (SKBr-3 tumors): minimal fluorescence
